In the supplement of paper PMC11451515:

Test system: NOMO1
Test: cell viability relative to DMSO control; higher = less cytotoxic
Conditions: 48 h
How it was run: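 Library compounds in DMSO were pin-dosed in an 11-point threefold series (47 μM to 0.79 nM) onto leukemia cells in 1536-well plates (5 μl). Plates held 500 cells/well of NOMO1 or SEM or 1000 cells/well of P12-Ichikawa, each adapted for at least four passages in each medium. Luminescence was read with CellTiter-Glo One after 48 h at 37°C. Viability means the per-plate percentage relative to DMSO wells, using cell-free wells as background.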

[1] = HPLM + 10% dialyzed FBS, 0.000781 µM
[2] = HPLM + 10% dialyzed FBS, 0.00234 µM
[3] = HPLM + 10% dialyzed FBS, 0.00702 µM
[4] = HPLM + 10% dialyzed FBS, 0.0211 µM
[5] = HPLM + 10% dialyzed FBS, 0.0632 µM
[6] = HPLM + 10% dialyzed FBS, 0.19 µM
[7] = HPLM + 10% dialyzed FBS, 0.569 µM
[8] = HPLM + 10% dialyzed FBS, 1.71 µM
[9] = HPLM + 10% dialyzed FBS, 5.12 µM
[10] = HPLM + 10% dialyzed FBS, 15.4 µM
[11] = HPLM + 10% dialyzed FBS, 46.1 µM
[12] = RPMI 5 mM glucose + 10% FBS, 0.000781 µM
[13] = RPMI 5 mM glucose + 10% FBS, 0.00234 µM
[14] = RPMI 5 mM glucose + 10% FBS, 0.00702 µM
[15] = RPMI 5 mM glucose + 10% FBS, 0.0211 µM
[16] = RPMI 5 mM glucose + 10% FBS, 0.0632 µM
[17] = RPMI 5 mM glucose + 10% FBS, 0.19 µM
[18] = RPMI 5 mM glucose + 10% FBS, 0.569 µM
[19] = RPMI 5 mM glucose + 10% FBS, 1.71 µM
[20] = RPMI 5 mM glucose + 10% FBS, 5.12 µM
[21] = RPMI 5 mM glucose + 10% FBS, 15.4 µM
[22] = RPMI 5 mM glucose + 10% FBS, 46.1 µM
[23] = RPMI 5 mM glucose + 10% dialyzed FBS, 0.000781 µM
[24] = RPMI 5 mM glucose + 10% dialyzed FBS, 0.00234 µM
[25] = RPMI 5 mM glucose + 10% dialyzed FBS, 0.00702 µM
[26] = RPMI 5 mM glucose + 10% dialyzed FBS, 0.0211 µM
[27] = RPMI 5 mM glucose + 10% dialyzed FBS, 0.0632 µM
[28] = RPMI 5 mM glucose + 10% dialyzed FBS, 0.19 µM
[29] = RPMI 5 mM glucose + 10% dialyzed FBS, 0.569 µM
[30] = RPMI 5 mM glucose + 10% dialyzed FBS, 1.71 µM
[31] = RPMI 5 mM glucose + 10% dialyzed FBS, 5.12 µM
[32] = RPMI 5 mM glucose + 10% dialyzed FBS, 15.4 µM
[33] = RPMI 5 mM glucose + 10% dialyzed FBS, 46.1 µM

SMILES	cell viability [1] [%]	cell viability [2] [%]	cell viability [3] [%]	cell viability [4] [%]	cell viability [5] [%]	cell viability [6] [%]	cell viability [7] [%]	cell viability [8] [%]	cell viability [9] [%]	cell viability [10] [%]	cell viability [11] [%]	cell viability [12] [%]	cell viability [13] [%]	cell viability [14] [%]	cell viability [15] [%]	cell viability [16] [%]	cell viability [17] [%]	cell viability [18] [%]	cell viability [19] [%]	cell viability [20] [%]	cell viability [21] [%]	cell viability [22] [%]	cell viability [23] [%]	cell viability [24] [%]	cell viability [25] [%]	cell viability [26] [%]	cell viability [27] [%]	cell viability [28] [%]	cell viability [29] [%]	cell viability [30] [%]	cell viability [31] [%]	cell viability [32] [%]	cell viability [33] [%]
COc1cc(C[C@@H](CO)[C@H](CO)Cc2ccc(O)c(OC)c2)ccc1O	97.7	99.3	97.2	123	112	122	126	108	107	101	104	107	118	101	111	103	108	106	97.2	104	94.4	102	95.8	111	113	107	118	110	107	107	104	103	112
COc1ccc(-n2c(C)c([N+](=O)[O-])c3ccc(O)cc32)cc1	–	–	–	–	–	–	–	–	–	–	–	111	104	113	114	118	126	107	121	98.3	119	106	114	120	126	124	123	115	114	102	97.5	105	101
CCN1\C=C(C(O)=O)/C(=O)C2=C1C(=C(N3CCNC(C)C3)C(=C2)F)F (stereo unspecified)	101	103	114	115	118	121	121	129	128	120	114	114	117	102	115	121	107	122	116	123	116	111	103	112	104	106	118	112	111	122	113	139	98.3
CN(C)CCc1c[nH]c2ccc(Cn3cncn3)cc12	93.7	103	105	102	115	77.6	86.2	18.3	9.15	6.34	3.57	84.7	91.7	89.8	87.1	91.5	65.3	82.4	17.4	7.32	5.18	3.92	94.9	93.5	98.1	106	92.8	78.8	86.1	32	10.7	5.4	4.44
CCCCN1CCC(CNC(=O)c2c3n(c4ccccc24)CCCO3)CC1	104	107	111	115	112	114	132	123	125	110	89.4	95.8	98.5	103	111	118	109	117	106	108	117	90.5	96.5	110	105	114	110	106	117	104	113	124	90.1
Clc1ccc(C(c2ccccc2Cl)C(Cl)Cl)cc1 (stereo unspecified)	137	124	123	122	120	107	116	122	114	99.8	101	105	115	126	118	137	134	120	119	110	98.2	93.2	106	115	129	106	111	109	97.1	120	101	95	99.4
COCC(=O)NC/C=C/c1ccc2ncnc(Nc3ccc(Oc4ccc(C)nc4)c(C)c3)c2c1	84.6	89.4	109	90.8	92.1	57.3	65.8	52.9	37	42.4	34.2	94.2	96.4	107	95	90.6	81.3	78	49.7	60.2	50.1	52.8	87.7	90.6	93.9	99.8	97.4	92.2	78.4	71.2	57.6	66.8	41
Cc1nnc(C(=O)NC(C)(C)c2nc(C(=O)NCc3ccc(F)cc3)c(O)c(=O)n2C)o1	121	112	119	118	104	103	106	101	95.6	97.9	96.6	87.6	99.4	96.8	92.4	96.7	99.1	100	91.2	86.5	92.2	93.3	93.7	100	107	93.1	109	96.6	95	96.8	93.7	104	94.5
CC(C)(C)NCC(O)c1ccc(O)c(CO)c1 (stereo unspecified)	100	109	109	132	119	114	107	70.5	55.5	47.8	44.7	102	98.3	105	106	112	99.9	107	79.2	78.1	64.7	51.4	102	109	115	114	110	110	92.8	76.7	65.3	70.7	47
CC(O)(C[S+](=O)([O-])c1ccc(F)cc1)C(=O)Nc1ccc(C#N)c(C(F)(F)F)c1 (stereo unspecified)	84.9	85.7	98.6	92.6	96.8	97	112	94.2	94.8	87.5	48	86.5	93.4	96.5	93.3	85.5	85.8	91.6	93.3	92.3	86.1	50.7	75.9	91.7	101	95.3	107	109	105	82.5	86.6	79.4	57
CCC(=O)NC[C@H](Cc1ccc(OCCc2nc(-c3ccccc3)oc2C)cc1)N/C(C)=C\C(=O)c1ccc(C(F)(F)F)cc1	98.9	104	101	122	114	130	96.3	104	103	54.3	27.1	102	114	109	99.6	106	112	101	109	113	62.4	19.2	97.9	113	102	115	106	117	107	107	90.8	105	43.7
CN(CC(=O)N(Cc1ccc(C2CCCCC2)cc1)c1ccc(C(=O)O)c(O)c1)[S+](=O)([O-])c1c(F)c(F)c(F)c(F)c1F	101	109	104	101	117	107	101	102	95.1	83.5	31.7	92.8	82.5	88.4	84.3	88.5	88.6	86.9	87.7	83.9	83.4	63	74.1	95.2	103	94.1	93.8	110	95.4	95.3	95.6	86.6	51.8
CC(C)C[C@H](CC(=O)O)C(=O)N[C@@H](Cc1c[nH]c2ccccc12)C(=O)N[C@@H](C)c1ccccc1	122	114	124	112	109	123	104	116	95.9	60.9	37.3	91.3	93.9	105	103	109	109	107	107	105	74.8	29.5	104	115	105	105	114	114	116	127	113	113	56.6
c1cc2c(cc1[C@H]1OC[C@H]3[C@@H]1CO[C@@H]3c1ccc3c(c1)OCO3)OCO2	115	120	135	112	134	143	139	138	118	131	124	113	122	129	130	146	138	139	125	119	136	130	119	127	123	130	139	137	125	164	117	129	137
O=C(Nc1cccnc1)N1CCC(Cc2cccc(Oc3ccc(C(F)(F)F)cn3)c2)CC1	98.9	112	108	116	115	115	116	91.4	81.3	32.6	19	111	104	99.7	98.6	110	107	108	101	108	35.1	23	98.2	103	92.1	102	102	118	116	107	85.8	47	31.5
Cc1n[nH]c2ccc(-c3cncc(OC[C@@H](N)Cc4ccccc4)c3)cc12	–	–	–	–	–	–	–	–	–	–	–	127	118	113	125	120	113	110	99.7	23.6	12.9	5.8	134	124	120	114	133	83.5	109	77.9	15.1	8.65	4.35
